Data taken from ChEMBL document CHEMBL3044860, “13-Deoxyitol A, a new insecticidal isoryanodane diterpene from the seeds of Itoa orientalis” (2009).

Assays:
Type in all cases: functional
Sogatella furcifera [1] = assay: Contact toxicity against macropterous female Sogatella furcifera applied topically measured per insect
Nilaparvata lugens [2] = assay: Contact toxicity against macropterous female Nilaparvata lugens (brown planthopper) applied topically measured per insect
Spodoptera litura [3] = assay: Contact toxicity against third-instar larval stage of Spodoptera litura applied topically measured per insect
Plutella xylostella [4] = assay: Contact toxicity against third-instar larval stage of Plutella xylostella (diamondback moth) applied topically measured per insect
Nilaparvata lugens [5] = assay: Antifeedant activity against fourth-instar nymph stage of Nilaparvata lugens (brown planthopper) in tillering to booting period rice seedlings
Sogatella furcifera [6] = assay: Antifeedant activity against fourth-instar nymph stage of Sogatella furcifera in tillering to booting period rice seedlings
Plutella xylostella [7] = assay: Antifeedant activity against third-instar larval stage of Plutella xylostella (diamondback moth) in cabbage mustard leaves
Spodoptera litura [8] = assay: Antifeedant activity against third-instar larval stage of Spodoptera litura in cabbage mustard leaves

Structure (SMILES) | LD50 (Sogatella furcifera [1]) | LD50 (Nilaparvata lugens [2]) | LD50 (Spodoptera litura [3]) | LD50 (Plutella xylostella [4]) | AFC50 (Nilaparvata lugens [5]) | AFC50 (Sogatella furcifera [6]) | AFC50 (Plutella xylostella [7]) | AFC50 (Spodoptera litura [8])
CC(C)[C@@]1(O)[C@H](O)[C@@H]2[C@@]3(O)[C@@H]4O[C@@](O)(C[C@@]2(C)[C@@]2(O)CC[C@@H](C)[C@@H]42)[C@]31C [ITOL A] | >2 µg | >2 µg | 0.22 µg | 0.22 µg | 34.8 µg/mL | 29.3 µg/mL | 22.5 µg/mL | 47.5 µg/mL
CC(C)[C@@H]1[C@H](O)[C@H]2C(C)(CO)[C@@]3(O)CC[C@@H](C)[C@H]3[C@H]3OC[C@]1(C)[C@]32O (stereo not given in full) [13-DEOXYITOL A] | >2 µg | >2 µg | 0.22 µg | 0.22 µg | 38.9 µg/mL | 23.5 µg/mL | 29.3 µg/mL | 50.1 µg/mL
C/C=C(\C)C(=O)O[C@H]1C[C@@H](OC(C)=O)[C@@]2(C(=O)OC)CO[C@H]3[C@@H](O)[C@@](C)([C@]45O[C@@]4(C)[C@@H]4C[C@H]5O[C@@H]5OC=C[C@@]54O)[C@H]4[C@]1(CO[C@]4(O)C(=O)OC)[C@@H]32 [AZADIRACHTIN A] | – | – | – | – | 7.5 µg/mL | 7 µg/mL | 9.3 µg/mL | 9.8 µg/mL
